Counter-ions that a name gives are not always drawn.
Biological target: T1, recombinant IRAK-4 kinase (Homo sapiens, UniProt Q9NWZ3)
T1 construct: purchased Millipore, USA
T1 sequence (Q9NWZ3 1-460): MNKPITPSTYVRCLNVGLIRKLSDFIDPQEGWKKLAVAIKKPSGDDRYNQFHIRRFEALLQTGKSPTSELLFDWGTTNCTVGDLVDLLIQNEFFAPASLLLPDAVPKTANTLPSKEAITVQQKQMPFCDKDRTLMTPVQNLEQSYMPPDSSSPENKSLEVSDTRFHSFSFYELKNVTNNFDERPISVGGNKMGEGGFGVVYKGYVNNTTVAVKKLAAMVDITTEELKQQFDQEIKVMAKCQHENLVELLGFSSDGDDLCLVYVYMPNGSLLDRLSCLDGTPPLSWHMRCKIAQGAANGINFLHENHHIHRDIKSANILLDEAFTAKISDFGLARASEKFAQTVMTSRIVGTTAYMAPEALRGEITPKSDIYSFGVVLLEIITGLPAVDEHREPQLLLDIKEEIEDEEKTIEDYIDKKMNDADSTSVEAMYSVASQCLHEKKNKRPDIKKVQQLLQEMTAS
Test: IRAK-4 Biochemical Assay (TR-FRET)
Details: 5 ng IRAK-4 kinase, 100 nM Biotin Histone H3, 20 μM ATP, 30 minutes pre-incubation, read-out: IC50 values for IRAK4 activity
Procedure, shortened: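 Recombinant IRAK-4 (5 ng) pre-incubated with compound 30 min at room temperature in Tris-HCl pH 7.5 with MgCl2/MnCl2, then 100 nM biotin-histone H3 and 20 μM ATP added for 30 min. Stopped with EDTA; phospho-Ser10 read by TR-FRET (Eu-antibody/APC-streptavidin).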

**Q.** Which IC50 does the source give for Cc1cc(-c2nc(C(=O)Nc3cc4oc(N5CCCCC5)nc4nc3N3CCCC3)co2)ccn1 [Example 111, 2-(2-methylpyridin-4-yl)-N-(2-(piperidin-1-yl)-5-(pyrrolidin-1-yl)oxazolo[4,5-b]pyridin-6-yl)oxazole-4-carboxamide] here?
**A.** < 50 nM

**Q.** Cc1cc(-c2nc(C(=O)Nc3cc4oc(N5CCOCC5)nc4nc3N3CCCC3)co2)ccn1 [Example 112, 2-(2-methylpyridin-4-yl)-N-(2-morpholino-5-(pyrrolidin-1-yl)oxazolo[4,5-b]pyridin-6-yl)oxazole-4-carboxamide] was tested. Which IC50 did it give?
**A.** > 100 nM

**Q.** With Cc1cc(-c2ccc(C(=O)Nc3cc4oc(N5CCOCC5)nc4nc3N3CCCCC3)o2)ccn1 [Example 113, 5-(2-methylpyridin-4-yl)-N-(2-morpholino-5-(piperidin-1-yl)oxazolo[4,5-b]pyridin-6-yl)furan-2-carboxamide] as the molecule, how does the IC50 read?
**A.** < 50 nM

**Q.** Which IC50 does the source give for Cc1cc(-c2ccc(C(=O)Nc3cc4oc(N5CCOCC5)nc4nc3N3CCC(O)CC3)o2)ccn1 [Example 114, N-(5-(4-hydroxypiperidin-1-yl)-2-morpholinooxazolo[4,5-b]pyridin-6-yl)-5-(2-methylpyridin-4-yl)furan-2-carboxamide] here?
**A.** < 50 nM

**Q.** For Cc1cc(-c2ccc(C(=O)Nc3cc4oc(N5CCOCC5)nc4nc3N3CCC[C@@H](O)C3)o2)ccn1 [Example 115, (R)—N-(5-(3-hydroxypiperidin-1-yl)-2-morpholinooxazolo[4,5-b]pyridin-6-yl)-5-(2-methylpyridin-4-yl)furan-2-carboxamide], which IC50 is on record?
**A.** < 50 nM

**Q.** How did the IC50 turn out when Cc1cc(-c2nc(C(=O)Nc3cc4oc(N5CCOCC5)nc4nc3-c3ccoc3)co2)ccn1 [Example 116, N-(5-(furan-3-yl)-2-morpholinooxazolo[4,5-b]pyridin-6-yl)-2-(2-methylpyridin-4-yl)oxazole-4-carboxamide] was run?
**A.** < 50 nM

**Q.** With Cc1cc(-c2nc(C(=O)Nc3cc4sc(N5CCOCC5)nc4nc3N3CCC[C@H](N)C3)co2)ccn1 [Example 120, (S)—N-(5-(3-aminopiperidin-1-yl)-2-morpholinothiazolo[4,5-b]pyridin-6-yl)-2-(2-methylpyridin-4-yl)oxazole-4-carboxamide hydrochloride] as the molecule, how does the IC50 read?
**A.** < 50 nM

**Q.** Which IC50 does the source give for Cc1cc(-c2nc(C(=O)Nc3cc4sc(N5CCOCC5)nc4nc3-c3cn[nH]c3)co2)ccn1 [Example 121, 2-(2-methylpyridin-4-yl)-N-(2-morpholino-5-(1H-pyrazol-4-yl)thiazolo[4,5-b]pyridin-6-yl)oxazole-4-carboxamide] here?
**A.** < 50 nM

**Q.** How did the IC50 turn out when Cc1cc(-c2nc(C(=O)Nc3cc4sc(N5CCOCC5)nc4nc3-c3ccc(F)nc3)co2)ccn1 [Example 122, N-(5-(6-fluoropyridin-3-yl)-2-morpholinothiazolo[4,5-b]pyridin-6-yl)-2-(2-methylpyridin-4-yl)oxazole-4-carboxamide] was run?
**A.** < 50 nM

**Q.** Which IC50 does the source give for Cc1cc(-c2nc(C(=O)Nc3cc4sc(N5CCOCC5)nc4nc3N3C4CCC3CC(O)C4)co2)ccn1 (stereo not drawn) [Example 123, N-(5-(3-hydroxy-8-azabicyclo[3.2.1]octan-8-yl)-2-morpholinothiazolo[4,5-b]pyridin-6-yl)-2-(2-methylpyridin-4-yl)oxazole-4-carboxamide] here?
**A.** < 50 nM

**Q.** Cc1cc(-c2nc(C(=O)Nc3cc4sc(N5CCCC(O)C5)nc4nc3N3CCCCC3)co2)ccn1 (stereo not drawn) [Example 124, N-(2-(3-hydroxypiperidin-1-yl)-5-(piperidin-1-yl)thiazolo[4,5-b]pyridin-6-yl)-2-(2-methylpyridin-4-yl)oxazole-4-carboxamide] was tested. Which IC50 did it give?
**A.** < 50 nM

**Q.** Which IC50 does the source give for CC(=O)Nc1cc(-c2nc(C(=O)Nc3cc4sc(N5CCOCC5)nc4nc3N3CCC(O)CC3)co2)ccn1 [Example 125, 2-(2-acetamidopyridin-4-yl)-N-(5-(4-hydroxypiperidin-1-yl)-2-morpholinothiazolo[4,5-b]pyridin-6-yl)oxazole-4-carboxamide] here?
**A.** < 50 nM

— US10047104B2, “Bicyclic heterocyclyl derivatives as IRAK4 inhibitors” (Aurigene Discovery Technologies Limited, priority 2014, dated 2018)
